Results: patent US7135293B2, “Method of detecting a nucleic acid using a fluorescent group-containing carbodiimide as a label” (Nisshinbo Industries, Inc., priority 1999, dated 2006)

Assay: Water solubility test

Solubility in water: 55 µg/µL
SMILES: CC1(C)C(/C=C/C2=C(Oc3ccccc3)C(=C/C=C3/N(CCCCS(=O)(=O)O)c4ccccc4C3(C)C)/CCC2)=[N+](CCCNC(=S)NCCC[N+](C)(C)CCCCCCN=C=NCCC[N+]2(C)CCOCC2)c2ccc3ccccc3c21.I [Compound (2)]
